These results are taken from PMC10460844, “Real‐Time Monitoring of Multitarget Antimicrobial Mechanisms of Peptoids Using Label‐Free Imaging with Optical Diffraction Tomography” (Advanced Science, 2023).

Numbered stars: 1 amine (or outer) side, 2 acyl side, 3 side chain; on linkers, the order of the positions; unused ones are H or OH. Square brackets hold non-standard residues; d marks the D form. Peptide text beside a SMILES is read from it. Gly(N(CH2)2(3-indolyl)) = O=C(O)CNCCc1c[nH]c2ccccc12; Nspe = C[C@H](NCC(=O)O)c1ccccc1; X1 = O=C(CN(CCCCO)[*:1])[*:2]; Nlys = NCCCCNCC(=O)O

This series in a line: Analytical reversed-phase HPLC elution (hydrophobicity). Type of series: physicochemical. As to conditions: Table S1; analytical RP-HPLC, SunFire C18, water/ACN + 0.1% TFA, 5 to 100% B linear over 30 min, 1 mL/min, UV 220 nm; approximate comparison of hydrophobicity. How it is done: 7. HPLC chromatogram, retention time (tR), and LC-MS data
HPLC analysis of peptoids was conducted using a Waters HPLC system equipped with a Waters 2489 UV/Visible Detector, 1525 Binary HPLC Pump, 2707 Autosampler, 5CH column oven, and a C18 column (SunFire C18, 4.6 × 250 mm, 5 μm; Waters Corp., Milford, MA, USA). The mobile phases were deionized water (A, with + 0.1% TFA) and acetonitrile (ACN; B, with + 0.1% TFA). Before sample injection, the column was conditioned with 5% B for 10 min. Then, the mobile phase was maintained at 5% B for 2 min, followed by increasing B to 100% using a linear gradient over 30 min. At this point, 100% B was maintained for 5 additional min. The flow rate of the mobile phase was 1 mL/min. The sample was detected by measuring absorbance at 220 nm. […]
Turning to `C[C@@H](c1ccccc1)N(CC(=O)N(CCCCO)CC(=O)N(CCc1c[nH]c2ccccc12)CC(=O)N(CCc1c[nH]c2ccccc12)CC(N)=O)C(=O)CN(CCCCO)C(=O)CN(CCCCO)C(=O)CN(C(=O)CN(C(=O)CN(CCCCO)C(=O)CN(C(=O)CN(C(=O)CNCCCCO)[C@@H](C)c1ccccc1)[C@@H](C)c1ccccc1)[C@@H](C)c1ccccc1)[C@@H](C)c1ccccc1` [peptoid 66], the HPLC elution was 64.7 % MeCN. In the case of `C[C@@H](c1ccccc1)N(CC(N)=O)C(=O)CN(CCCCN)C(=O)CN(C(=O)CN(C(=O)CN(CCCCN)C(=O)CN(C(=O)CN(C(=O)CN(CCCCN)C(=O)CN(C(=O)CN(CCCCN)C(=O)CN(CCCCN)C(=O)CNCCc1c[nH]c2ccccc12)[C@@H](C)c1ccccc1)[C@@H](C)c1ccccc1)[C@@H](C)c1ccccc1)[C@@H](C)c1ccccc1)[C@@H](C)c1ccccc1` [peptoid 60] it was 48.6 % MeCN; in that of `C[C@@H](c1ccccc1)N(CC(=O)N(CCCCN)CC(=O)N(CC(=O)N(CC(=O)N(CCCCN)CC(=O)N(CC(=O)N(CC(=O)N(CCCCN)CC(=O)N(CCCCN)CC(N)=O)[C@@H](C)c1ccccc1)[C@@H](C)c1ccccc1)[C@@H](C)c1ccccc1)[C@@H](C)c1ccccc1)C(=O)CN(C(=O)CN(CCCCN)C(=O)CNCCc1c[nH]c2ccccc12)[C@@H](C)c1ccccc1` [peptoid 57] (H-[Gly(N(CH2)2(3-indolyl))][Nlys][Nspe][Nspe][Nlys][Nspe][Nspe][Nlys][Nspe][Nspe][Nlys][Nlys]-NH2), 49.1 % MeCN; in that of `C[C@H](NCC(=O)N(CCCCN)CC(=O)N(CCCCN)CC(=O)N(CC(=O)N(CCCCN)CC(=O)N(CC(=O)N(CC(=O)N(CCCCN)CC(=O)N(CC(=O)N(CC(=O)N(CCCCN)CC(=O)N(CC(N)=O)[C@@H](C)c1ccccc1)[C@@H](C)c1ccccc1)[C@@H](C)c1ccccc1)[C@@H](C)c1ccccc1)[C@@H](C)c1ccccc1)[C@@H](C)c1ccccc1)c1ccccc1` [peptoid 56] (H-[Nspe][Nlys][Nlys][Nspe][Nlys][Nspe][Nspe][Nlys][Nspe][Nspe][Nlys][Nspe]-NH2), 48.0 % MeCN. On to `C[C@H](NCC(=O)N(CCCCN)CC(=O)N(CC(=O)N(CC(=O)N(CCCCN)CC(=O)N(CC(=O)N(CC(=O)N(CCCCN)CC(=O)N(CC(=O)N(CC(=O)N(CCCCN)CC(=O)N(CCCCN)CC(N)=O)[C@@H](C)c1ccccc1)[C@@H](C)c1ccccc1)[C@@H](C)c1ccccc1)[C@@H](C)c1ccccc1)[C@@H](C)c1ccccc1)[C@@H](C)c1ccccc1)c1ccccc1` [peptoid 53] (H-[Nspe][Nlys][Nspe][Nspe][Nlys][Nspe][Nspe][Nlys][Nspe][Nspe][Nlys][Nlys]-NH2), for which the HPLC elution was found to be 48.5 % MeCN.

`NC(=O)CN(CCc1c[nH]c2ccccc12)C(=O)CN(CCc1c[nH]c2ccccc12)C(=O)CN(CCCCO)C(=O)CN(CCc1c[nH]c2ccccc12)C(=O)CN(CCc1c[nH]c2ccccc12)C(=O)CN(CCCCO)C(=O)CN(CCc1c[nH]c2ccccc12)C(=O)CN(CCc1c[nH]c2ccccc12)C(=O)CN(CCCCO)C(=O)CN(CCc1c[nH]c2ccccc12)C(=O)CN(CCc1c[nH]c2ccccc12)C(=O)CNCCCCO` [peptoid 65] (H-[X1][Gly(N(CH2)2(3-indolyl))][Gly(N(CH2)2(3-indolyl))][X1][Gly(N(CH2)2(3-indolyl))][Gly(N(CH2)2(3-indolyl))][X1][Gly(N(CH2)2(3-indolyl))][Gly(N(CH2)2(3-indolyl))][X1][Gly(N(CH2)2(3-indolyl))][Gly(N(CH2)2(3-indolyl))]-NH2): the HPLC elution was 66.7 % MeCN.

Regarding `C[C@@H](c1ccccc1)N(CC(N)=O)C(=O)CN(CCCCN)C(=O)CN(C(=O)CN(CCCCN)C(=O)CN(CCCCN)C(=O)CN(C(=O)CN(C(=O)CN(CCCCN)C(=O)CN(C(=O)CN(C(=O)CN(CCCCN)C(=O)CNCCc1c[nH]c2ccccc12)[C@@H](C)c1ccccc1)[C@@H](C)c1ccccc1)[C@@H](C)c1ccccc1)[C@@H](C)c1ccccc1)[C@@H](C)c1ccccc1` [peptoid 58], the HPLC elution turned out to be 48.7 % MeCN. In the case of `C[C@@H](c1ccccc1)N(CC(N)=O)C(=O)CN(CCCCN)C(=O)CN(C(=O)CN(C(=O)CN(CCCCN)C(=O)CN(C(=O)CN(C(=O)CN(CCCCN)C(=O)CN(C(=O)CN(CCCCN)C(=O)CNCCCCN)[C@@H](C)c1ccccc1)[C@@H](C)c1ccccc1)[C@@H](C)c1ccccc1)[C@@H](C)c1ccccc1)[C@@H](C)c1ccccc1` [peptoid 52] it was 46.9 % MeCN; in that of `C[C@@H](c1ccccc1)N(CC(N)=O)C(=O)CN(CCCCN)C(=O)CN(C(=O)CN(CCCCN)C(=O)CN(CCCCN)C(=O)CN(C(=O)CN(C(=O)CN(CCCCN)C(=O)CN(C(=O)CN(C(=O)CNCCCCN)[C@@H](C)c1ccccc1)[C@@H](C)c1ccccc1)[C@@H](C)c1ccccc1)[C@@H](C)c1ccccc1)[C@@H](C)c1ccccc1` [peptoid 50], 46.1 % MeCN.

`C[C@@H](c1ccccc1)N(CC(N)=O)C(=O)CN(CCCCN)C(=O)CN(C(=O)CN(C(=O)CN(CCCCN)C(=O)CN(C(=O)CN(CCCCN)C(=O)CN(CCCCN)C(=O)CN(C(=O)CN(C(=O)CNCCCCN)[C@@H](C)c1ccccc1)[C@@H](C)c1ccccc1)[C@@H](C)c1ccccc1)[C@@H](C)c1ccccc1)[C@@H](C)c1ccccc1` [peptoid 51]: the HPLC elution is 45.3 % MeCN.

For the compound `C[C@@H](c1ccccc1)N(CC(N)=O)C(=O)CN(CCCCN)C(=O)CN(C(=O)CN(C(=O)CN(CCCCN)C(=O)CN(C(=O)CN(CCCCN)C(=O)CN(CCCCN)C(=O)CN(C(=O)CN(C(=O)CN(CCCCN)C(=O)CNCCc1c[nH]c2ccccc12)[C@@H](C)c1ccccc1)[C@@H](C)c1ccccc1)[C@@H](C)c1ccccc1)[C@@H](C)c1ccccc1)[C@@H](C)c1ccccc1` [peptoid 59], the HPLC elution stood at 47.8 % MeCN.

In the case of `C[C@H](NCC(=O)N(CCCCN)CC(=O)N(CC(=O)N(CC(=O)N(CCCCN)CC(=O)N(CCCCN)CC(=O)N(CC(=O)N(CCCCN)CC(=O)N(CC(=O)N(CC(=O)N(CCCCN)CC(=O)N(CC(N)=O)[C@@H](C)c1ccccc1)[C@@H](C)c1ccccc1)[C@@H](C)c1ccccc1)[C@@H](C)c1ccccc1)[C@@H](C)c1ccccc1)[C@@H](C)c1ccccc1)c1ccccc1` [peptoid 55] (H-[Nspe][Nlys][Nspe][Nspe][Nlys][Nlys][Nspe][Nlys][Nspe][Nspe][Nlys][Nspe]-NH2), the HPLC elution turned out to be 47.2 % MeCN.

Take `C[C@H](NCC(=O)N(CCCCN)CC(=O)N(CC(=O)N(CC(=O)N(CCCCN)CC(=O)N(CC(=O)N(CC(=O)N(CCCCN)CC(=O)N(CCCCN)CC(=O)N(CC(=O)N(CCCCN)CC(=O)N(CC(N)=O)[C@@H](C)c1ccccc1)[C@@H](C)c1ccccc1)[C@@H](C)c1ccccc1)[C@@H](C)c1ccccc1)[C@@H](C)c1ccccc1)[C@@H](C)c1ccccc1)c1ccccc1` [peptoid 54] (H-[Nspe][Nlys][Nspe][Nspe][Nlys][Nspe][Nspe][Nlys][Nlys][Nspe][Nlys][Nspe]-NH2): the HPLC elution is 48.1 % MeCN.
